Assay results: patent US20240041898A9, “NEUROSTEROIDS AND ENANTIOMERS THEREOF FOR THE PREVENTION AND TREATMENT OF NEURODEGENERATIVE CONDITIONS” (priority 2019, published 2024)
Values joined by “and” are separate entries in the source; they are usually repeats but may differ in a detail not shown here. Equal values may be shown once.

System: p62
Assay: Ex vivo pressure-loaded retinas, Western blot of p62
Assay type: cell-based, rat
Conditions: ex vivo, 75 mmHg; for p62 expression (FIG. 2S), individual experiments 1-5: 1 μM, relative units, 10 mmHg = 1.00
Description: Rat ex vivo Eyecup Preparation—Rat ex vivo eyecups were prepared from 28-32 day old male Sprague-Dawley rats (Charles River Laboratories International Inc., Wilmington, MA). The anterior half of the enucleated eyes was carefully removed to make eyecup preparations. Eyecups were placed at the bottom of a 100 ml glass beaker filled with aCSF (artificial cerebrospinal fluid) containing (in mM): 124 NaCl, 5 KCl, 2 MgSO4, 2 CaCl2, 1.25 NaH2PO4, 22 NaHCO3, and 10 glucose, and incubated at 30° C. for 24 hours using a closed pressure-loading system (FIG. 1C). pH was maintained at 7.35 to 7.40. In the closed-pressure system, a glass beaker with the eyecup was placed at the bottom of an acrylic pressure chamber (2,000 ml volume). A 95% O2-5% CO2 gas mixture was delivered through disposable plastic tubing with an infusion valve and a control dial on the lid of the pressure chamber and an air filter (Cat #SLGP033RS, Merck Millipore, Billerica, MA). The plastic tubing delivering the gas terminated 1 cm above the bottom of the beaker.
Acutely prepared eyecups were incubated in gassed aCSF for at least 1 h at 30° C. before pressure loading. In some experiments, AlloP (1 μM), ent-AlloP (1 μM), and 3-MA (10 mM) were dissolved in aCSF at the time of experiment and administered by bath perfusion. Eyecup preparations were treated with these drugs for 1 h at 30° C. before pressure loading. For pressure loading, the 95% O2-5% CO2 gas mixture was infused until the pressure reading given by a manometer reached the appropriate level. The pressure was then locked by adjusting the control dial of the effusion valve, and monitored continuously for 24 h at 30° C.
Western Blot Analysis—At the end of each experiment, the posterior segments of the eye were placed on a flat cutting surface and immersed in ice-cold aCSF. With a surgical blade, the retina was carefully and gently detached from the sclera with a fine forceps. The isolated retinas were frozen at −80° C. Retinas were then homogenized in lysis buffer solution (CelLytic MT; Sigma-Aldrich, Inc.) with protease inhibitor cocktail (Sigma-Aldrich, Inc.), prepared according to the manufacturer's instructions. The tissue extracts were ultrasonicated and clarified by centrifugation at 12,000 g for 20 minutes at 4° C. The protein concentrations in supernatants were assayed (Quant-iT assay kit; Invitrogen Corp., Carlsbad, CA). Twenty micrograms of retinal extract were subjected to SDS polyacrylamide gel electrophoretic analysis. The proteins were then transferred to a PVDF. Immunoblots by polyclonal rabbit anti-LC3B antibody (MBL Life Science) or anti-SQSTMl/p62 mouse monoclonal antibody (Abcam) were visualized using WesternBreeze Chemiluminescent Immunodetection system (Invitrogen) with the exposure time to autoradiograph film (MXJB Plus; Kodak, Rochester, NY) adjusted to avoid over- or undersaturation. Precision Plus Protein™ Western Standards (Bio-Rad, Hercules, CA) followed by Precision Protein™ strep Tactin-AP conjugate (Bio-Rad) was used for a molecular marker of LC3. […]
The density of Western blot bands was quantified using Image-Pro Plus software. Quantification was adjusted to protein expression at 10 mmHg after normalization to the β-actin band at each pressure, and the relative gray-scale value was calculated by densitometric analysis of the obtained bands. […] Differences in expression levels were evaluated using Wilcoxon Rank-Sum Test, Tukey's or Dunnett's multiple comparison test. […]

Structure (SMILES) | p62 expression after 3-MA treatment (FIG. 3H), Average (1 μM ent-AlloP, 10 mM 3-MA, relative, ent-AlloP = 1.00, Average of 4) | p62 expression after 3-MA treatment (FIG. 3H), individual experiments 1-4 (1 μM ent-AlloP, 10 mM 3-MA, relative, ent-AlloP = 1.00, single values) | p62 expression (FIG. 2S), individual experiments 1-5 (single values)
CC(=O)[C@@H]1CC[C@@H]2[C@H]3CC[C@@H]4C[C@@H](O)CC[C@@]4(C)[C@@H]3CC[C@]21C [ent-AlloP, ent-allopregnanolone] | 1.00 | 1.00 | 0.92 and 0.40 and 1.00 and 0.28 and 1.08
CC(=O)[C@H]1CC[C@H]2[C@@H]3CC[C@H]4C[C@H](O)CC[C@]4(C)[C@H]3CC[C@]12C [AlloP, allopregnanolone] | – | – | 1.96 and 2.18 and 2.05 and 0.84 and 2.81
